Laboratory results taken from patent US20220193209A1, “COMPOSITIONS AND METHODS FOR REACTIVATING LATENT IMMUNODEFICIENCY VIRUS AND/OR TREATING IMMUNODEFICIENCY VIRUS INFECTION” (The J. David Gladstone institutes, a testamentary trust …, priority 2019, published 2022).

Columns and labels:
J-Lat cells = experiment: Cell viability of J-Lat cells by flow cytometry; type: cell-based
Protocol: FIG. 3, Panel A, depicts results of treatment of a J-Lat cell line 5A8 with increasing concentrations (1-10000 nM) of AS1842856 for 24, 48 and 72 h. HIV-GFP mRNA reactivation was assessed by RT-qPCR and normalized to RPL13A mRNA. Data represent average SD of three independent experiments. p-value relative to the control at each time point. FIG. 3, Panel B, depicts cell viability assessed by flow cytometry at 72 h of the same experiment as in A. Cell viability was measured by gating on both the live population at the forward scatter (FSC) and side scatter (SSC) plot and then the viable cells after staining with the viability dye. FIG. 3, Panel C, depicts results of treatment of J-Lat cell lines A2 and A72 with increasing concentrations of AS1842856 for 24, 48 and 72 h. HIV-GFP reactivation (bars) and cell viability (dots) were analyzed by FACS. HIV-GFP reactivation is reported as a percentage of GFP-expressing cells (% GFP+ cells). Data represent average f SD of at least three independent experiments. FIG. 3, Panel D, depicts the same experiments as in FIG. 3, Panel C, but performed in different J-Lat cell lines 5A8, 6.3, 11.1 and 15.4. Data represent average f SD of at least three independent experiments. 10 ng/mL TNFα was used as control. FIG. 3 Panel E depicts results of treatment of J-Lat cell lines 5A8, 6.3, 11.1 and 15.4 for 72 h with increasing concentrations of both AS1842856 (Y-axis) and TNFα (X-axis) alone or in combination and analyzed by FACS. Calculation of synergy for drug combinations using the Bliss independence model applied to the HIV-GFP reactivation measured as a percentage of GFP-expressing cells (% GFP+ cells).
FIG. 10, Panels A-F depict results of a J-Lat cell line 5A8 treated with different concentrations of inhibitors. FIG. 10, Panel A, depicts results for a J-Lat cell line A58 that was treated with increasing concentrations of A-92 (GCN2 inhibitor) in combination with 1000 nM AS1842856 (72 h) or 10 ng/mL TNFα (24 h). HIV-GFP reactivation was analyzed by FACS and relativized to the control condition. Histogram plots of percent live cells for each drug treatment are shown. FIG. 10, Panel B, depicts the same experiment as in FIG. 10, Panel A, but cells were treated with increasing concentrations of PKR inhibitor (PKRi). Histogram plots representing viability are also shown. Data are represented by mean±SD of three different […]. […] FIG. 10, Panel D, depicts a J-Lat cell line A58 that was treated with increasing concentrations of Ionomycin (0.01, 0.1, 0.5, 1 μM) for 24, 48 and 72 hr. HIV-GFP reactivation and cell viability were analyzed by FACS. FIG. 10, Panel E, depicts a J-Lat cell line 5A8 that was treated for 72 h with increasing concentrations of both Fenretinide (Y-axis) and Ionomycin (X-axis) alone or in combination and analyzed by FACS. HIV-GFP reactivation is reported as a percentage of GFP-expressing cells (% GFP+ cells). FIG. 10, Panel F, depicts a J-Lat cell line 5A8 that was also treated for 72 h with increasing concentrations of both Thapsigargin (Y-axis) and Cyclosporin A (X-axis) alone or in combination and analyzed by FACS. HIV-GFP reactivation is again reported as a percentage of GFP-expressing cells (% GFP+ cells).

K562 cells = experiment: Cell viability of HIVGKO-infected K562 cells; type: cell-based; conditions: K562, increasing concentrations
Protocol: Briefly, K562 cells were treated with increasing concentrations of the FOXO1 inhibitor AS1842856 just after HIVGKO infection. After 3-4 days, the percentage of latent cells and productive cells were quantified by FACS. In left panel, amount of productive or latent cells relative to the total infection rate (bars) and cell viability (dots). In the right panel, ratios of productive versus latent populations upon increasing concentrations of AS1842856 treatments. Data are represented as mean f SD of triplicate values, representative of three independent experiments. FIG. 1, Panel B depicts FOXO1, FOXO3 and FOXO4 CETSA-melting curve shifts upon the presence or absence of AS1842856 1000 nM in K562 cells. Band intensities obtained from western blot analysis were related to the highest western blot signal which has been set to 100%. Relative FOXO-band intensities were plotted against corresponding incubation temperatures and a nonlinear least-squares regression fit was applied. Data represent the mean±SD of three individual experiments. FIG. 1, Panel C depicts the efficiency of FOXO1, FOXO3 and FOXO4 knockdowns with two different sgRNAs checked by western blot. Cells transduced with NC (negative control) sgRNA lentiviruses were used as a control. […]

In the case of `CCn1cc(C(=O)O)c(=O)c2c(N)c(F)c(NC3CCCCC3)cc21` [AS1842856, 5-amino-7-(cyclohexylamino)-1-ethyl-6-fluoro-4-oxo-1,4-dihydro-quinoline-3-carboxylic acid], the cell viability (J-Lat cells; J-Lat 5A8, 72 h) is reported as “No major effects”, the cell viability (J-Lat cells; J-Lat A2 and A72) is reported as “no effect” and the viability (J-Lat cells; four J-Lat clonal cell lines) is reported as “unaffected”. For the same molecule, the viability (K562 cells) was “no significant changes”.
